From patent publication US8075921B2, “Rapamycin-resistant T cells and therapeutic uses thereof” (The United States of America as represented by the …, priority 2001, dated 2011)

Experiments:
naïve human CD4 cells = test: Co-stimulated expansion of flow-sorted naïve CD4 cells with or without rapamycin; assay type: cell-based; settings: in rapamycin relative to control culture
Text: (§1) To this extent, naïve or memory human CD4 cells were purified by flow sorting, and co-stimulated either with or without rapamycin (results in FIG. 31).

[1] = system: memory CD45RO^+ sorted cells; test: Co-stimulated expansion of flow-sorted memory CD4 cells with or without rapamycin; assay type: cell-based, human; settings: in rapamycin relative to control culture
Text: as §1

CO[C@H]1C[C@@H]2CC[C@@H](C)[C@@](O)(O2)C(=O)C(=O)N2CCCC[C@H]2C(=O)O[C@H]([C@H](C)C[C@@H]2CC[C@@H](O)[C@H](OC)C2)CC(=O)[C@H](C)/C=C(\C)[C@@H](O)[C@@H](OC)C(=O)[C@H](C)C[C@H](C)/C=C/C=C/C=C/1C [rapamycin]
reduction in CD4 yield (naïve human CD4 cells): ~25%
reduction in CD4+ T cell expansion [1]: ~50%
